Data reported in US20250215101A1, “DR5 Agonist and PLK1 Inhibitor or CDK Inhibitor Combination Therapy” (Inhibrx Biosciences, Inc., priority 2022, published 2025).
pEC50: −log10 of the molar value.

What was measured:
CAL-78 = experiment: Cell viability (CellTiter-Glo) cytotoxicity assay, INBRX-109 x CDK9 or MCL-1 inhibitor matrix, 48 h, chondrosarcoma line
Description: (§1) On day 1, cells were seeded as follows. Monolayer cultures of each cell line (chondrosarcoma: CAL-78, OUMS-27, SW1353, and H-EMC-SS; colorectal cancer: SW620; and synovial sarcoma: HS-SY-II) were harvested for compound screening. Culture medium was aspirated, and the cells were washed once with PBS. Accutase was added and flasks were incubated at 37° C. until cells became detached. An equal volume of complete medium was added to quench the Accutase, and the cells were then pipetted up and down several times to generate a homogenous single cell suspension. The density and viability of cells was determined by Trypan Blue using a TC20 Automated Cell Counter. Experimental cells were resuspended to a concentration of 0.17×10^6/mL in Eagle's Minimum Essential Medium (EMEM)/10% FBS/Anti-Anti media (complete EMEM) and seeded in the inner wells of 384-well luminescence plates at 15 mL/well (2,500/well final). Each cell line was plated in duplicate on separate plates. Outer wells were filled with 50 mL PBS, then plates were incubated in a humidified temperature-controlled 37° C. tissue culture incubator at 5% CO2 overnight for 16 hours.
(§2) These test articles were added, in duplicate, to each cell line. The plates were then centrifuged at 400×g for 1 minute, then incubated in a 37° C. humidity-controlled tissue culture incubator (5% CO2) for 48 hours.
(§3) After incubation with the test articles, viability measurements were taken, briefly. Plates were equilibrated to room temperature for 10 minutes, then 25 μL of CellTiter-Glo 2.0® was added to each well. Plates were spun for 1 minute at 400×g, then covered and incubated in the dark for 10 minutes at room temperature. Any visible bubbles were removed with 100% ethanol vapor, then luminescence (RLU) was read on the Spectra Max M5e plate reader, using the 384-well opaque plate setting and SoftMax® Pro v5.4 software with an integration time of 50 milliseconds. To determine the effect of test articles on cell viability, raw RLU values were exported to Excel and percent survival was calculated as a percentage of vehicle control (0.5% DMSO in EMEM), where the vehicle control is set at 100%. Data was graphed in GraphPad Prism 9.

H-EMC-SS = experiment: as above
Description: as §1, §2, §3

OUMS-27 = experiment: as above
Description: as §1, §2, §3

SW1353 = experiment: as above
Description: as §1, §2, §3

[1] = tested on: CAL-78, OUMS-27, SW1353, H-EMC-SS, SW620, HS-SY-II; experiment: Cytotoxicity screens INBRX-109 + CDK9 or MCL-1 inhibitor, summary over the cell lines; assay type: cell-based; settings: combination with INBRX-109
Description: Data was graphed in GraphPad Prism 9.

SW620 = experiment: Cell viability (CellTiter-Glo) cytotoxicity assay, INBRX-109 x CDK9 or MCL-1 inhibitor matrix, 48 h, colorectal cancer line
Description: as §1, §2, §3

HS-SY-II = experiment: Cell viability (CellTiter-Glo) cytotoxicity assay, INBRX-109 x CDK9 or MCL-1 inhibitor matrix, 48 h, synovial sarcoma line
Description: as §1, §2, §3

CDK9 = CDK9 (Homo sapiens, UniProt P50750); settings: cited from earlier work
Sequence of CDK9 (P50750 whole entry): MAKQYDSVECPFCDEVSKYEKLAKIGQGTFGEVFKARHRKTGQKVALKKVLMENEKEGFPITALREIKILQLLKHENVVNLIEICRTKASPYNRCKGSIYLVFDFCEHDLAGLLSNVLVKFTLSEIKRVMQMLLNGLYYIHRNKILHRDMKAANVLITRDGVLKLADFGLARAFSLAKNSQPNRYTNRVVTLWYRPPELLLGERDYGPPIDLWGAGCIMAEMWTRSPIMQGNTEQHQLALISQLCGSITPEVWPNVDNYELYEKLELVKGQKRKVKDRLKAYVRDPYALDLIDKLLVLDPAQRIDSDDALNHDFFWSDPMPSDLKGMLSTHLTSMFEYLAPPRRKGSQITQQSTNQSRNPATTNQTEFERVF
Sequence of CDK9 (O60563 whole entry partner): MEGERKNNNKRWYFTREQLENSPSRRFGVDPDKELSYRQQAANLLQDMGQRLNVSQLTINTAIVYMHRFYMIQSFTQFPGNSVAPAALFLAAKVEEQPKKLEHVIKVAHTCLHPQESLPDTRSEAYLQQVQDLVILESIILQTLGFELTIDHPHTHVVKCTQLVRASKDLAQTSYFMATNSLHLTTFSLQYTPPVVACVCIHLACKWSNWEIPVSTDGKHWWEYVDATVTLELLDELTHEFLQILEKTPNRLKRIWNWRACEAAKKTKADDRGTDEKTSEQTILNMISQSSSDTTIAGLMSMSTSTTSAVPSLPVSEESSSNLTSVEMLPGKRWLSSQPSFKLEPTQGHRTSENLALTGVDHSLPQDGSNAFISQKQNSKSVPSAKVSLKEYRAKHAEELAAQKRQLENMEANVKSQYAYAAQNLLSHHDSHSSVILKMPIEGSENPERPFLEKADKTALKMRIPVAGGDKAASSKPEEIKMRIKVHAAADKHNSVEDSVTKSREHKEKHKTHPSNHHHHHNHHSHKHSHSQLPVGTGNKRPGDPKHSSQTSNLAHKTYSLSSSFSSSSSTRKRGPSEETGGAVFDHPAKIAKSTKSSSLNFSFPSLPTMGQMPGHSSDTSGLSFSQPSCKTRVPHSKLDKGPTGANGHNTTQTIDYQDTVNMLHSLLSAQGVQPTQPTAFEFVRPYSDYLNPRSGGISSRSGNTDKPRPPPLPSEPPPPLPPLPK

[2] = concentrations of 125 nM or higher

Structure (SMILES): COC[C@@H](C)N[C@H]1CC[C@H](Nc2cc(-c3cccc(NCC4(C#N)CCOCC4)n3)c(Cl)cn2)CC1 [NVP-2]
- pEC50 (CAL-78; NVP-2 + 1 nM INBRX-109): 7.58
- Max Cytotox (CAL-78; NVP-2 + 1 nM INBRX-109): 92.4%
- pEC50 (CAL-78; NVP-2 only): 7.63
- Max Cytotox at 125 nM (CAL-78; NVP-2 only): 42.2%
- pEC50 (H-EMC-SS; NVP-2 + 1 nM INBRX-109): 7.61
- Max Cytotox (H-EMC-SS; NVP-2 + 1 nM INBRX-109): 98.7%
- pEC50 (H-EMC-SS; NVP-2 only): 7.63
- Max Cytotox at 125 nM (H-EMC-SS; NVP-2 only): 46.4%
- pEC50 (OUMS-27; NVP-2 + 1 nM INBRX-109): 7.79
- Max Cytotox (OUMS-27; NVP-2 + 1 nM INBRX-109): 88.5%
- pEC50 (OUMS-27; NVP-2 only): 8.05
- Max Cytotox at 125 nM (OUMS-27; NVP-2 only): 20.4%
- pEC50 (SW1353; NVP-2 + 1 nM INBRX-109): 7.65
- Max Cytotox (SW1353; NVP-2 + 1 nM INBRX-109): 79.5%
- pEC50 (SW1353; NVP-2 only): 7.51
- Max Cytotox at 125 nM (SW1353; NVP-2 only): 52.8%
- cell killing by the combination [1]: increased cell killing on nearly every cancer cell line tested
- combination effect (shift in the killing curves of INBRX-109) ([1]; concentrations higher than 25 nM): synergistic effect
- pEC50 (SW620; NVP-2 + 1 nM INBRX-109): 8.31
- Max Cytotox (SW620; NVP-2 + 1 nM INBRX-109): 98.7%
- pEC50 (SW620; NVP-2 only): 7.90
- Max Cytotox at 125 nM (SW620; NVP-2 only): 39.5%

Structure (SMILES): CN1CC[C@H](c2c(O)cc(O)c3c(=O)cc(-c4ccccc4Cl)oc23)[C@H](O)C1 [Flavopiridol]
- pEC50 (CAL-78; flavopiridol + 1 nM INBRX-109): 6.94
- pEC50 (CAL-78; flavopiridol only): 6.84
- Max Cytotox at 125 nM (CAL-78; flavopiridol only): 10.9%
- pEC50 (HS-SY-II; flavopiridol + 1 nM INBRX-109): 6.99
- Max Cytotox (HS-SY-II; flavopiridol + 1 nM INBRX-109): 95.1%
- pEC50 (HS-SY-II; flavopiridol only): 6.96
- Max Cytotox at 125 nM (HS-SY-II; flavopiridol only): 55.8%
- pEC50 (H-EMC-SS; flavopiridol + 1 nM INBRX-109): 7.27
- Max Cytotox (H-EMC-SS; flavopiridol + 1 nM INBRX-109): 99%
- pEC50 (H-EMC-SS; flavopiridol only): 6.94
- Max Cytotox at 125 nM (H-EMC-SS; flavopiridol only): 21.9%
- pEC50 (OUMS-27; flavopiridol + 1 nM INBRX-109): 6.93
- Max Cytotox (OUMS-27; flavopiridol + 1 nM INBRX-109): 87.8%
- pEC50 (OUMS-27; flavopiridol only): 6.96
- Max Cytotox at 125 nM (OUMS-27; flavopiridol only): 24.0%
- pEC50 (SW1353; flavopiridol + 1 nM INBRX-109): 6.87
- Max Cytotox (SW1353; flavopiridol + 1 nM INBRX-109): 88.3%
- pEC50 (SW1353; flavopiridol only): 6.70
- Max Cytotox at 125 nM (SW1353; flavopiridol only): 21.7%
- cell killing by the combination [1]: increased cell killing on nearly every cancer cell line tested
- combination effect (shift in the killing curves of INBRX-109) [1, 2]: synergistic effect
- pEC50 (SW620; flavopiridol + 1 nM INBRX-109): 7.30
- Max Cytotox (SW620; flavopiridol + 1 nM INBRX-109): 98.7%
- EC50 (SW620; flavopiridol only): Unstable
- Max Cytotox at 125 nM (SW620; flavopiridol only): 21.7%

Structure (SMILES): N[C@H]1CC[C@H](Nc2cc(-c3cccc(NCc4cccc(F)c4)n3)c(Cl)cn2)CC1 [i-CDK9]
- selectivity for CDK9 over other CDKs (CDK9): 600 fold

Structure (SMILES): COc1cc(F)ccc1-c1cc(Nc2cc(CS(C)(=N)=O)ccn2)ncc1F (centres unmarked) [Enitociclib]
- pEC50 (CAL-78; enitociclib + 1 nM INBRX-109): 6.96
- Max Cytotox (CAL-78; enitociclib + 1 nM INBRX-109): 90.8%
- pEC50 (CAL-78; enitociclib only): 6.84
- Max Cytotox at 125 nM (CAL-78; enitociclib only): 10.9%
- pEC50 (HS-SY-II; enitociclib + 1 nM INBRX-109): 7.05
- Max Cytotox (HS-SY-II; enitociclib + 1 nM INBRX-109): 94%
- pEC50 (HS-SY-II; enitociclib only): 7.13
- Max Cytotox at 125 nM (HS-SY-II; enitociclib only): 73.2%
- pEC50 (H-EMC-SS; enitociclib + 1 nM INBRX-109): 6.94
- Max Cytotox (H-EMC-SS; enitociclib + 1 nM INBRX-109): 99.2%
- pEC50 (H-EMC-SS; enitociclib only): 6.91
- Max Cytotox at 125 nM (H-EMC-SS; enitociclib only): 15.8%
- pEC50 (OUMS-27; enitociclib + 1 nM INBRX-109): 7.04
- Max Cytotox (OUMS-27; enitociclib + 1 nM INBRX-109): 81%
- pEC50 (OUMS-27; enitociclib only): 7.29
- Max Cytotox at 125 nM (OUMS-27; enitociclib only): 25.6%
- pEC50 (SW1353; enitociclib + 1 nM INBRX-109): 6.99
- Max Cytotox (SW1353; enitociclib + 1 nM INBRX-109): 64.6%
- pEC50 (SW1353; enitociclib only): 6.99
- Max Cytotox at 125 nM (SW1353; enitociclib only): 28.0%
- cell killing by the combination [1]: increased cell killing on nearly every cancer cell line tested
- combination effect (shift in the killing curves of INBRX-109) [1, 2]: synergistic effect
- pEC50 (SW620; enitociclib + 1 nM INBRX-109): 7.41
- Max Cytotox (SW620; enitociclib + 1 nM INBRX-109): 97.6%
- pEC50 (SW620; enitociclib only): 7.59
- Max Cytotox at 125 nM (SW620; enitociclib only): 27.3%
